EP0950418A2, “Composition for preventing or treating ischemic disease” (Takeda Chemical Industries, Ltd., priority 1998, dated 1999)

Assays:
[1] = tested on: myocardial infarct size; assay: Rat acute myocardial infarction model (extension of myocardial infarct size); assay type: in vivo; conditions: 1 mg/kg, i.v.
Description: (1) Inhibitory effects of Compound A on the extension of myocardial infarct size were determined by "Rat acute myocardial infarction model" described in British Journal of Pharmacology, 114, 949-954 (1995).
(2) Inhibitory effects of Compound B [(S)-(-)-7-(2-chlorophenyl)-5-guanidinoimino-4-methyl-5,6,7,8-tetrahydroquinoline] on the extension of myocardial infarct size were determined by "Rat acute myocardial infarction model" described in British Journal of Pharmacology, 114, 949-954 (1995).

[2] = tested on: lethal arrhythmia; assay: Lethal arrhythmia induced by coronary artery occlusion for 5 minutes with reperfusion; assay type: in vivo, Male Wistar rats
Description: Inhibitory effects of Compounds A and B on lethal arrhythmia were determined by the following method:
Male Wistar rats (10-week-old) were anaesthetized with pentobarbital and the chest was opened to expose the heart. Arrhythmia was induced by coronary artery occlusion for 5 minutes with reperfusion of the coronary blood flow. Ventricular arrhythmia observed during occlusion and for 5 minutes after reperfusion was recorded on Mac Lab through polygraph, and the II Lead electro-cardiogram was recorded. Ventricular tachycardia (VT) was counted when premature ventricular complex (PVC) continued more than 5 times. Each of the drugs was dissolved in saline and administered from the femoral vein 5 minutes before coronary artery occlusion.

[3] = premature ventricular complex, drug in saline via femoral vein 5 minutes before coronary artery occlusion
[4] = ventricular tachycardia, drug in saline via femoral vein 5 minutes before coronary artery occlusion

With Cc1ccnc2c1C(=NNC(=N)N)C[C@@H](c1ccccc1Cl)C2 [Compound B, (S)-(-)-7-(2-chlorophenyl)-5-guanidinoimino-4-methyl-5,6,7,8-tetrahydroquinoline] the infarct size/area-at-risk ([1]; Post-treatment, 1 minute before reperfusion started) was 39±3 %, the infarct size/area-at-risk ([1]; Pre-treatment, 5 minutes before coronary occlusion) was 30±5 % t** and the “PVC D (duration)” value [2, 3] was 20.9 ± 4.3 s. For the same compound, the “PVC N (number of PVCs)” value [2, 3] was 4.8±2.8 time, the “inhibitory effects on lethal arrhythmia” value ([2]; summary in words of the arrhythmia table) was “showed inhibitory effects on lethal arrhythmia” and the “VT D (duration)” value [2, 4] was 7.2 ± 3.6 s. For the same compound, the “VT F (frequency)” value [2, 4] was 3.0±0.7 time.
